Data from article PMC9179341, “Design of New Potent and Selective Thiophene-Based KV1.3 Inhibitors and Their Potential for Anticancer Activity” (Cancers, 2022).

target: T1, KV1.3 (Homo sapiens, UniProt P22001); test: KV1.3 inhibition, manual voltage-clamp on Xenopus laevis oocytes; assay type: cell-based; conditions: 10 μM; manual voltage-clamp on Xenopus laevis oocytes
Protocol: (§1) Stage V–VI oocytes were isolated by partial ovariectomy from Xenopus laevis frogs (African clawed frogs). […] After anaesthetizing the frogs by a 15-min submersion in 0.1% tricaine methanesulfonate (amino benzoic acid ethyl ester; Merck, Kenilworth, NJ, USA), pH 7.0, the oocytes were collected. The isolated oocytes were then washed with a 1.5 mg/mL collagenase solution for 2 h to remove the follicle layer.
(§2) Ion channels (Kv1.x, Kv2.1, Kv4.2, Kv10.1) were expressed in Xenopus laevis oocytes by linearization of the plasmids and subsequent in vitro transcription using a commercial T7 or SP6 mMESSAGE mMACHINE transcription kit (Ambion, Carlsbad, California, USA). Defolliculated Xenopus oocytes were then injected with 20–50 nL of the cRNA at a concentration of 1 ng/nL using a micro-injector (Drummond Scientific1, Broomall, PA, USA). The oocytes were incubated in a solution containing (in mM): NaCl, 96; KCl, 2; CaCl2, 1.8; MgCl2, 2 and HEPES, 5 (pH 7.5), supplemented with 50 mg/L gentamycin sulfate and 90 mg/L theophylline.
(§3) Two-electrode voltage-clamp recordings were performed at room temperature (18–22 °C) using a Geneclamp 500 amplifier (Molecular Devices, San Jose, CA, USA) and pClamp data acquisition (Axon Instruments, Union City, CA, USA) and using an integrated digital TEVC amplifier controlled by HiClamp, an automated Voltage-Clamp Screening System (Multi Channel Systems MCS GmbH, Reutlingen, Germany). Whole-cell currents from oocytes were recorded 1–4 days after injection. The bath solution composition was ND96 (in mM): NaCl, 96; KCl, 2; CaCl2, 1.8; MgCl2, 2 and HEPES, 5 (pH 7.5). Voltage and current electrodes were filled with a 3 M solution of KCl in H2O. […] The elicited Kv1.x, Kv2.1, Kv4.2 and Kv10.1 currents were filtered at 0.5 kHz and sampled at 2 kHz using a four-pole low-pass Bessel filter. Leak subtraction was performed using a P/4 protocol.
(§4) For the electrophysiological analysis of the compounds, a number of protocols were applied from a holding potential of −90 mV. Currents for Kv1.x, Kv2.1, Kv4.2 and Kv10.1 were evoked by 1 s depolarizing pulses either to 0 mV or to a range of voltage steps between −80 mV and +40 mV. For the analysis of the data, only the inhibition at the 0 mV step was used. The concentration dependency of all compounds was assessed by measuring the current inhibition in the presence of increasing compound concentrations. […] From this stock solution, adequate dilutions with a maximum of 0.5% DMSO were made for testing.
(§5) All electrophysiological data (Figure S1) are presented as means ± S.E.M of n ≥ three independent experiments unless otherwise indicated. […] The Dunnett test and one-way ANOVA were performed to calculate the significance of the induced inhibition compared to the control.

T1 sequence (P22001 whole entry): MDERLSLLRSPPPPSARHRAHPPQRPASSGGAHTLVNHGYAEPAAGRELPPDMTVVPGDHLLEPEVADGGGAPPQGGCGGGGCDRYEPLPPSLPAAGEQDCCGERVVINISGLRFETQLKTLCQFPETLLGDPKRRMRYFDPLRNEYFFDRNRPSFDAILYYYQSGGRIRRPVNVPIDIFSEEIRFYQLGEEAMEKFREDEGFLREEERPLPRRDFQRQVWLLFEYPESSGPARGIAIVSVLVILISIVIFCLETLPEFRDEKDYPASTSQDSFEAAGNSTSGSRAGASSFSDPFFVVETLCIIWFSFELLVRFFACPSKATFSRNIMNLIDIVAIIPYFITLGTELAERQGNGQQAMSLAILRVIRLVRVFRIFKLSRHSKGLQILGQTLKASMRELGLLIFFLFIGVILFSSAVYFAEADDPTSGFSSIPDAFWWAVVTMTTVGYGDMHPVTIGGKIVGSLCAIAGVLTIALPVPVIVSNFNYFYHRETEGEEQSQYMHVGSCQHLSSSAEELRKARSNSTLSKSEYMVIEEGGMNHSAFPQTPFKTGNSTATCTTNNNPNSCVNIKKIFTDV

Row | SMILES | inhibition at 10 µM
1 | COc1ccc(C2(CNC(=O)c3ccccc3OC)CCCC2)cc1 [Compound 6] | < 10%
2 | COc1ccccc1C(=O)NCC1(c2ccccc2OC)CCCC1 [Compound 7] | < 10%
3 | COc1ccc(C2(CNC(=O)c3ccccc3OC)CCCC2)cc1OC [Compound 8] | < 10%
4 | COc1ccccc1C(=O)NCC1(c2ccc3c(c2)OCO3)CCCC1 [Compound 9] | < 10%
5 | COc1ccccc1C(=O)NCC1(c2ccccc2)CCCC1 [Compound 10] | < 10%
6 | COc1cccc(C2(CNC(=O)c3ccccc3OC)CCCC2)c1 [Compound 11] | 18 ± 3%
7 | COc1ccccc1C(=O)NCC1(c2cccc(C)c2)CCCC1 [Compound 12] | 16 ± 4%
8 | COc1ccccc1C(=O)NCC1(c2cccs2)CCCC1 [Compound 13] | 57 ± 9%
9 | COc1ccc(C2(CNC(=O)c3ccccc3OC)CCCCC2)cc1OC [Compound 15] | < 10%
10 | COc1ccc(C2(CNC(=O)c3ccccc3OC)CCCCC2)cc1 [Compound 16] | < 10%
11 | COc1ccccc1C(=O)NCC1(c2ccc(C(F)(F)F)cc2)CCCCC1 [Compound 17] | < 10%
12 | COc1ccccc1C(=O)NCC1(c2ccccc2OC)CCCCC1 [Compound 18] | < 10%
13 | COc1cccc(C2(CNC(=O)c3ccccc3OC)CCCCC2)c1 [Compound 19] | 12 ± 2%
14 | COc1ccccc1C(=O)NCC1(c2cccc(C)c2)CCCCC1 [Compound 20] | 27 ± 2%
15 | COc1ccccc1C(=O)NCC1(c2ccsc2)CCCCC1 [Compound 21] | 30 ± 8%
16 | COc1ccccc1C(=O)NCC1(c2ccc(C(F)(F)F)cc2)CCOCC1 [Compound 22] | < 10%
17 | COc1ccc(C2(CNC(=O)c3ccccc3OC)CCOCC2)cc1OC [Compound 23] | < 10%
18 | COc1ccc(C2(CNC(=O)c3ccccc3OC)CCOCC2)cc1 [Compound 24] | 59 ± 5%
19 | COc1ccccc1C(=O)NCC1(c2ccc(C)cc2)CCOCC1 [Compound 25] | 52 ± 8%
20 | COc1ccccc1C(=O)NCC1(c2ccc3c(c2)OCO3)CCOCC1 [Compound 26] | 60 ± 9%
21 | COc1ccccc1C(=O)NCC1(c2ccccc2OC)CCOCC1 [Compound 27] | 78 ± 4%
22 | COc1cccc(C2(CNC(=O)c3ccccc3OC)CCOCC2)c1 [Compound 28] | 88 ± 4%
23 | COc1ccccc1C(=O)NCC1(c2cccc(C)c2)CCOCC1 [Compound 29] | 87 ± 4%

Continued, values first:

Row | inhibition at 10 µM | SMILES
24 | < 10% | COc1cccc(OC)c1C(=O)NCC1(c2ccccc2)CCOCC1 [Compound 30]
25 | 11 ± 4% | O=C(NCC1(c2ccccc2)CCOCC1)c1ccsc1 [Compound 31]
26 | 27 ± 6% | O=C(NCC1(c2ccccc2)CCOCC1)c1ccoc1 [Compound 32]
27 | 38 ± 5% | COc1ccccc1CC(=O)NCC1(c2ccccc2)CCOCC1 [Compound 33]
28 | 47 ± 1% | COc1ccc(C)cc1C(=O)NCC1(c2ccccc2)CCOCC1 [Compound 34]
29 | 74 ± 9% | CCOc1ccccc1C(=O)NCC1(c2ccccc2)CCOCC1 [Compound 35]
30 | 89 ± 4% | COc1cc(C)ccc1C(=O)NCC1(c2ccccc2)CCOCC1 [Compound 36]
31 | < 10% | COc1ccccc1C(=O)NCC1(c2csc3ccccc23)CCOCC1 [Compound 38]
32 | < 10% | COc1ccc(-c2csc(C3(CNC(=O)c4ccccc4OC)CCOCC3)n2)cc1 [Compound 39]
33 | < 10% | COc1ccccc1C(=O)NCC1(c2nc(-c3ccccc3)cs2)CCOCC1 [Compound 40]
34 | 41 ± 10% | COc1ccccc1C(=O)NCC1(c2csc(C)n2)CCOCC1 [Compound 41]
35 | 54 ± 10% | COc1ccccc1C(=O)NCC1(c2cscn2)CCOCC1 [Compound 42]
36 | < 10% | COc1cccc(OC)c1C(=O)NCC1(c2ccsc2)CCOCC1 [Compound 45]
37 | 21 ± 6% | O=C(NCC1(c2ccsc2)CCOCC1)c1ccoc1 [Compound 46]
38 | 35 ± 8% | CCOc1ccccc1C(=O)NCC1(c2ccsc2)CCOCC1 [Compound 47]
39 | 42 ± 6% | COc1ccc(C)cc1C(=O)NCC1(c2ccsc2)CCOCC1 [Compound 48]
40 | 43 ± 1% | COc1ccccc1CC(=O)NCC1(c2ccsc2)CCOCC1 [Compound 49]
41 | 47 ± 9% | COc1ccc(F)cc1C(=O)NCC1(c2ccsc2)CCOCC1 [Compound 50]
42 | 82 ± 1% | COc1cc(C)ccc1C(=O)NCC1(c2ccsc2)CCOCC1 [Compound 51]

same assay, conditions: KV1.3; manual voltage-clamp, Xenopus laevis oocytes

Row | IC50 | SMILES
43 | 5.75 µM | COc1cccc(C2(CNC(=O)c3ccccc3OC)CCOCC2)c1 [Compound 28]
44 | 4.3 µM | COc1ccccc1C(=O)NCC1(c2cccc(C)c2)CCOCC1 [Compound 29]

target: T1, KV1.3; test: KV1.3 inhibition, HiClamp on Xenopus laevis oocytes; assay type: cell-based; conditions: Xenopus laevis oocytes (marked * in Table 2)
Protocol: as §1, §2, §3, §4, §5

Row | IC50 | SMILES
45 | 1.65 µM | COc1cc(C)ccc1C(=O)NCC1(c2ccccc2)CCOCC1 [Compound 36]
46 | 2.92 µM | COc1cc(C)ccc1C(=O)NCC1(c2ccsc2)CCOCC1 [Compound 51]

test system: Panc-1 cell line; test: not given; parameters: method as in PMID 29034212; conditions: Panc-1 cell line; read-out: EC50 decrease of cell survival; cited from earlier work

Row | SMILES | EC50
47 | O=c1ccc2c(OCCCCOc3ccc(CCC[P+](c4ccccc4)(c4ccccc4)c4ccccc4)cc3)c3ccoc3cc2o1 [PAPTP] | ~3 µM
48 | O=C(NCCC[P+](c1ccccc1)(c1ccccc1)c1ccccc1)Oc1ccc(OCCCCOc2c3ccoc3cc3oc(=O)ccc23)cc1 [PCARBTP] | ~6 µM

test system: Colo-357; test: not given; parameters: method as in PMID 29034212; conditions: read-out: EC50 cell death; cited from earlier work

Row | SMILES | EC50
49 | O=c1ccc2c(OCCCCOc3ccc(CCC[P+](c4ccccc4)(c4ccccc4)c4ccccc4)cc3)c3ccoc3cc2o1 [PAPTP] | 3.7 µM
50 | O=C(NCCC[P+](c1ccccc1)(c1ccccc1)c1ccccc1)Oc1ccc(OCCCCOc2c3ccoc3cc3oc(=O)ccc23)cc1 [PCARBTP] | 2 µM
